Where “and” joins values, the source holds several entries; their conditions need not be identical. Equal entries are not always repeated.
Assays:
Test in all cases: CIMA assay (colorimetric indicator of metabolic activity), 72 h exposure
[1] = test system: THP-1 (acute monocytic leukemia); format: cell-based, human; conditions: THP-1, SDS 5% control; 0 = 100.0; in % (unit assumed)
Experimental: (§1) Stock solutions of the extracts were prepared in dimethylsulfoxide (DMSO) at 10 mg/mL and stored in 200 μl aliquots at −20° C. until analysis. This preparation ensured that the DMSO delivered to cells in culture never exceeded 1%.
(§2) Prepared extracts were assessed following chronic exposure conditions in which cells were seeded at 2×10^3 cells/well (96 wells plate) and incubated with test compounds for 72 h. Each compound was evaluated over a range of concentrations (0, 10, 25, 50 or 100 μg/ml). Cell proliferation was initially assessed using a standard colorimetric indicator of metabolic activity (CIMA) assay. In this assay, tetrazole reduction was evaluated as a measure of metabolic function that evaluates mitochondrial activity to determine the extent of cell proliferation within a culture. This assay is based on the reduction of yellow tetrazolium salt to purple formazan by mitochondrial reductases enzyme in viable cells, resulting in a color changed that confers a change in absorbance. Six human cell lines were selected for primary evaluation: U373 (glioblastoma-astrocytoma), A549 (lung carcinoma), THP-1 (acute monocytic leukemia), MCF7 (mammary gland adenocarcinoma), SKOV3 (ovarian adenocarcinoma), and CCD1079SK (fibroblast, noncancerous but proliferating). From the results shown in Table 2 and FIGS. 4 and 5, the extracts were selected for additional fractionation and evaluated in the same manner.
(§3) Lead crude extracts were fractionated into five fractions by C-18 SPE column separation using 15 ml each of 5% methanol (fraction 1), 25% methanol (fraction 2), 50% methanol (fraction 3), 100% methanol (fraction 4) and […] (fraction 5). Extracts were fractionated and the resulting fractions were evaluated using CIMA assay. Bio-assay guided fractionation provided detailed information regarding the compound(s) responsible for specific bioactivity.

[2] = test system: MCF7 (mammary gland adenocarcinoma); format: cell-based, human; conditions: MCF7, SDS 5% control; 0 = 100.0; in % (unit assumed)
Experimental: as §1, §2, §3

[3] = test system: SKOV3 (ovarian adenocarcinoma); format: cell-based, human; conditions: SKOV3, SDS 5% control; 0 = 100.0; in % (unit assumed)
Experimental: as §1, §2, §3

[4] = test system: CCD1079SK (fibroblast, noncancerous but proliferating); format: cell-based, human; conditions: SDS 5% control, 0 = 100.0, in % (unit assumed)
Experimental: as §1, §2, §3

[5] = test system: U373 (glioblastoma-astrocytoma); format: cell-based, human; conditions: U373, SDS 5% control; 0 = 100.0; in % (unit assumed)
Experimental: as §1, §2, §3

[6] = test system: A549 (lung carcinoma); format: cell-based, human; conditions: A549, SDS 5% control; 0 = 100.0
Experimental: as §1
as §2, with “Six human cell lines were selected for primary evaluation: U373 (glioblastoma-astrocytoma), A549 (lung carcinoma), THP-1 (acute monocytic leukemia), MCF7 (mammary gland adenocarcinoma), SKOV3 (ovarian adenocarcinoma), and CCD1079SK (fibroblast, noncancerous but proliferating).” left out

[7] = test system: PC3; format: cell-based; conditions: PC3, SDS 5% control; 0 = 100.0
Experimental: as §1
as §2, with “Six human cell lines were selected for primary evaluation: U373 (glioblastoma-astrocytoma), A549 (lung carcinoma), THP-1 (acute monocytic leukemia), MCF7 (mammary gland adenocarcinoma), SKOV3 (ovarian adenocarcinoma), and CCD1079SK (fibroblast, noncancerous but proliferating).” left out

With CCCCCCCCCCCCOS(=O)(=O)[O-].[Na+] [SDS] the “AVG (viability, CIMA assay)” value [1] was 20.3 and 36.2, the “AVG (viability, CIMA assay)” value [2] was 44.1 and 49.9 and the “AVG (viability, CIMA assay)” value [3] was 78.9 and 56.5. For the same compound, the “AVG (viability, CIMA assay)” value [4] was 9.4 and 11.3, the “AVG (viability, CIMA assay)” value [5] was 48.4 and 58.1 and the AVG (viability, CIMA assay) [6] was 68.7%. The AVG (viability, CIMA assay) [7] was 77.3%.

Source: patent US20180185423A1, “SEAWEED EXTRACTS WITH ANTI-CANCER ACTIVITY” (OCEANS LTD., priority 2015, published 2018)
